{"source": "patent US10172858B2", "about": "“Combination pharmaceutical compositions and uses thereof” (Intellikine LLC, priority 2011, dated 2019)", "key": {"[1]": {"system": "mTORC1-dependent NRDG1 phosphorylation", "assay": "Western blot of NRDG1 phosphorylation (FIG. 4B)", "format": "cell-based"}, "[2]": {"target": "PI3K α (Homo sapiens (Human), UniProt P42336)", "assay": "PI3K α kinase assay", "format": "biochemical"}, "[3]": {"target": "PI3K β (Homo sapiens (Human), UniProt P42338)", "sequence (P42338 whole entry, species assumed)": "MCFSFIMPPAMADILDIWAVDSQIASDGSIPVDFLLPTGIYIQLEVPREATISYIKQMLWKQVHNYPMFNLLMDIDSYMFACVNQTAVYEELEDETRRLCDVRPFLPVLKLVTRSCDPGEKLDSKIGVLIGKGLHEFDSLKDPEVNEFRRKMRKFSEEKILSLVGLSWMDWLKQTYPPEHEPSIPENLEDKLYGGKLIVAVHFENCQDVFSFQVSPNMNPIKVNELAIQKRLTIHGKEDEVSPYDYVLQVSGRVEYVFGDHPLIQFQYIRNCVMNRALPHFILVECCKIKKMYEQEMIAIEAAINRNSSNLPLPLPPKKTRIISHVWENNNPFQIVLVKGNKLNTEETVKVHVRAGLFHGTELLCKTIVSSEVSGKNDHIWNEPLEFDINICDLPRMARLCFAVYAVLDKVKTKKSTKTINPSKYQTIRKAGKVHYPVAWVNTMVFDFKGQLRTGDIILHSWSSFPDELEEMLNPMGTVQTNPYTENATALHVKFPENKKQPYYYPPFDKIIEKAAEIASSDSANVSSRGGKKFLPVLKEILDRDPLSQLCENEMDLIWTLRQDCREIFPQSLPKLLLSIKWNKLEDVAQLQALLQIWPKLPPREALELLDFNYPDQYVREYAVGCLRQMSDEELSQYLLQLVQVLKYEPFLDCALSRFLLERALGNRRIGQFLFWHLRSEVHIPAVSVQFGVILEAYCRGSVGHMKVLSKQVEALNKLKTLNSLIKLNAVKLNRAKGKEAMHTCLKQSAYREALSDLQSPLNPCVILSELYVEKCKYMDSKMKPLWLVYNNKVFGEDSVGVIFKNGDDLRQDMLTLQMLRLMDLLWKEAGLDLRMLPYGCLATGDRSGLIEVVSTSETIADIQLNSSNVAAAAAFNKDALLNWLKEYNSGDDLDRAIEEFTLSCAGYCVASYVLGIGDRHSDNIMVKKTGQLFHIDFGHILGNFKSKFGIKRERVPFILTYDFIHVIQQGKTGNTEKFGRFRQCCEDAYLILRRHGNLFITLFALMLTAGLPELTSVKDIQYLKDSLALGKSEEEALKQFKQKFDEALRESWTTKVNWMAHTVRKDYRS", "sequence (P27986 whole entry partner, species assumed)": "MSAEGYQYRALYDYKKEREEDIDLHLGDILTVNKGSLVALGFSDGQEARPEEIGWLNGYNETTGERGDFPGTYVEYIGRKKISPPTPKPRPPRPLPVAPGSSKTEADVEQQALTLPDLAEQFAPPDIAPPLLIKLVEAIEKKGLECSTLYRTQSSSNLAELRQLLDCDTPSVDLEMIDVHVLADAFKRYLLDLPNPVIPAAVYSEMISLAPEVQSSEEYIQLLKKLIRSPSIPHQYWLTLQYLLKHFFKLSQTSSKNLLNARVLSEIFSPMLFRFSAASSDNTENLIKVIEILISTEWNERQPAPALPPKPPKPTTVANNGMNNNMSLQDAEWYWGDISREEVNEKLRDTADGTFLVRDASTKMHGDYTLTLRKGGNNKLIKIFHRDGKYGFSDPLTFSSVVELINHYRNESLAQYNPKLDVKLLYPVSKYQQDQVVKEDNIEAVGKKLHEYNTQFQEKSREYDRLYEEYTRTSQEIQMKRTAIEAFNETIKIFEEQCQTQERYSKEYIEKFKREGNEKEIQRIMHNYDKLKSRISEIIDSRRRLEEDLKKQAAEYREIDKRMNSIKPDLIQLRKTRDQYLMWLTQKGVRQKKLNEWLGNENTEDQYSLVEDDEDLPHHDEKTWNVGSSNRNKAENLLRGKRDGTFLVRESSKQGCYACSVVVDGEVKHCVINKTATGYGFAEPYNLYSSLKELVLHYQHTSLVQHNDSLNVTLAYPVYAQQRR", "assay": "PI3K β kinase assay", "format": "biochemical", "details": "Table 2"}, "[4]": {"target": "PI3K γ (Homo sapiens (Human), UniProt P48736)", "assay": "PI3K γ kinase assay", "format": "biochemical", "details": "Table 2"}, "[5]": {"target": "PI3K δ (Homo sapiens (Human), UniProt O00329)", "sequence (O00329 whole entry, species assumed)": "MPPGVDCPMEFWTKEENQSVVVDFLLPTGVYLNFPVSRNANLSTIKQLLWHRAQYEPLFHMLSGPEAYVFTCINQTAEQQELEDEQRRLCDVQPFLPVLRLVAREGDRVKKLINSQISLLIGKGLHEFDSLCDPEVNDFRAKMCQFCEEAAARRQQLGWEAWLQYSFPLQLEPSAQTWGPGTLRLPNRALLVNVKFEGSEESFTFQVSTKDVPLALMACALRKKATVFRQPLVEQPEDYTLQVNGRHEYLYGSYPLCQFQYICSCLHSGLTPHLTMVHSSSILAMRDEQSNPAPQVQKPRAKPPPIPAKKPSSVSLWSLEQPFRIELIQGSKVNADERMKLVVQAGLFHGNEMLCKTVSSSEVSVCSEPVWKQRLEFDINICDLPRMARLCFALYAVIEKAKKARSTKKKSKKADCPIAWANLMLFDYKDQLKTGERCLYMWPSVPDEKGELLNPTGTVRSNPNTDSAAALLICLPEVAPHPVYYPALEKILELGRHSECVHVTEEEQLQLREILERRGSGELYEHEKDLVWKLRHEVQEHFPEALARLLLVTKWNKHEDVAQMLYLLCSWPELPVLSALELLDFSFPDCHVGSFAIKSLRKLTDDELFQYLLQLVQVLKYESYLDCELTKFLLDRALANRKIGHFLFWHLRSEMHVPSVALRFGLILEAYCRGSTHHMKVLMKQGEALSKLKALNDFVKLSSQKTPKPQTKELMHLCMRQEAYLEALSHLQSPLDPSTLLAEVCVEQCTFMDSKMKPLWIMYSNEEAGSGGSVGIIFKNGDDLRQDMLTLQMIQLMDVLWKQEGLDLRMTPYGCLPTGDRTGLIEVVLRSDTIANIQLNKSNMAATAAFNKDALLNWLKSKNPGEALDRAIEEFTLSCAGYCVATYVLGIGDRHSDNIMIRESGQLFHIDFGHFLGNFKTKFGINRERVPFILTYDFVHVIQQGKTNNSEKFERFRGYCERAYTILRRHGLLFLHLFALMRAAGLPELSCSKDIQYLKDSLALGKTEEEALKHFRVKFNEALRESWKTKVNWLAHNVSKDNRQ", "sequence (P27986 whole entry partner, species assumed)": "as the sequence (P27986 whole entry partner, species assumed) above", "assay": "PI3K δ kinase assay", "format": "biochemical"}, "[6]": {"system": "PC3", "assay": "PC3 tumor cell line proliferation assay", "format": "cell-based", "details": "Homo sapiens, PC-3; Table 2, in vitro IC50", "procedure": "The assay is performed in a 96 well microtiter plate using Alamar Blue reduction. […] A compound disclosed herein is diluted in Tumor Cell Media and added in a 10 ul volume. […] A volume of 10 uL of Alamar Blue reagent is added to each well and plates are incubated for 3 hours at 37 C and 5% CO2. Alamar Blue fluoresce is read at 560Ex/590Em, and IC50 values are calculated using GraphPad Prism 5."}, "[7]": {"target": "mTORC (Homo sapiens (Human), UniProt P42345)", "sequence (P42345 1360-2549)": "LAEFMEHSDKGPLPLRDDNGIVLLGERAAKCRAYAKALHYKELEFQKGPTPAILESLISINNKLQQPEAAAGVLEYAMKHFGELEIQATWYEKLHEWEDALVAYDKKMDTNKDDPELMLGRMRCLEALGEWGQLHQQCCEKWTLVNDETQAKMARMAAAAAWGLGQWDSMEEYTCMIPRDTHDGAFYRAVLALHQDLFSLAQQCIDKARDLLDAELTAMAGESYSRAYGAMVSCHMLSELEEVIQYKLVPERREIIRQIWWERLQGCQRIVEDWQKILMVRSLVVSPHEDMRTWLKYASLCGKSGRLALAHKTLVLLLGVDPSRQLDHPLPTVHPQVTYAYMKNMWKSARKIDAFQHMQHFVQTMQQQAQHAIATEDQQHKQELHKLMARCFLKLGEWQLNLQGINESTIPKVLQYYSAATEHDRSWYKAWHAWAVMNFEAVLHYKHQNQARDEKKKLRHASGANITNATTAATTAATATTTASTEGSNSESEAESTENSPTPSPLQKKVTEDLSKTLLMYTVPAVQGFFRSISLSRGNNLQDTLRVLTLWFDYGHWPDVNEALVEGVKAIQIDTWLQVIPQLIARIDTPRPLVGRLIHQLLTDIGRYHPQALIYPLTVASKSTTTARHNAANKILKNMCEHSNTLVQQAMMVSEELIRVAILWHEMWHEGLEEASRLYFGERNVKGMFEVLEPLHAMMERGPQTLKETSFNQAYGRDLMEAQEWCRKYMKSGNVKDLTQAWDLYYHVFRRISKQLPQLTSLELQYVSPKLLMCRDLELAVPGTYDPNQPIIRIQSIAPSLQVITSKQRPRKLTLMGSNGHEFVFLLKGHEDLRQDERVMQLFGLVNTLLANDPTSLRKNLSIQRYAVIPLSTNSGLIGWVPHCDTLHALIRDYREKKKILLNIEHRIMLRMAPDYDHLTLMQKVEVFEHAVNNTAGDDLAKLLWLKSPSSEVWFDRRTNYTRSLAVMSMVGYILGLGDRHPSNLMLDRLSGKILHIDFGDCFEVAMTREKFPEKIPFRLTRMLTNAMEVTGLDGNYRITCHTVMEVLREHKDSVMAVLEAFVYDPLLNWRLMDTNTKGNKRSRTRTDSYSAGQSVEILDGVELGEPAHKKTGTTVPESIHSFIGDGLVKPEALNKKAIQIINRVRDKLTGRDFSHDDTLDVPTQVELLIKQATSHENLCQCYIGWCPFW", "assay": "mTORC in vitro IC50 (Table 2)", "format": "biochemical", "procedure": "The compounds described herein and any other mTor inhibitors known in the art can be tested against recombinant mTOR (Invitrogen) in an assay containing 50 mM HEPES, pH 7.5, 1 mM EGTA, 10 mM MgCl2, 2.5 mM, 0.01% Tween, 10 μM ATP (2.5 μCi of μ-32P-ATP), and 3 μg/mL BSA. Rat recombinant PHAS-1/4EBP1 (Calbiochem; 2 mg/mL) is used as a substrate. Reactions are terminated by spotting onto nitrocellulose, which is washed with 1M NaCl/1% phosphoric acid (approximately 6 times, 5-10 minutes each). Sheets are dried and the transferred radioactivity quantitated by phosphorimaging.\nFor instance, one can use Invitrogen's LanthaScreen™ Kinase assay to test the inhibitors of mTOR disclosed herein. This assay is a time resolved FRET platform that measures the phosphorylation of GFP labeled 4EBP1 by mTOR kinase. The kinase reaction is performed in a white 384 well microtitre plate. The total reaction volume is 20 ul per well and the reaction buffer composition is 50 mM HEPES pH7.5, 0.01% Polysorbate 20, 1 mM EGTA, 10 mM MnCl2, and 2 mM DTT. In the first step, each well receives 2 ul of test compound in 20% dimethylsulphoxide resulting in a 2% DMSO final concentration. Next, 8 ul of mTOR diluted in reaction buffer is added per well for a 60 ng/ml final concentration. To start the reaction, 10 ul of an ATP/GFP-4EBP1 mixture (diluted in reaction buffer) is added per well for a final concentration of 10 μM ATP and 0.5 μM GFP-4EBP1. The plate is sealed and incubated for 1 hour at room temperature. […] The plate is sealed, incubated for 1 hour at room temperature, and then read on a plate reader set up for LanthaScreen™ TR-FRET. Data is analyzed and IC50s are generated using GraphPad Prism 5."}, "[8]": {"system": "Endometrial cancer cells containing mutations in PTEN and FGFR2", "assay": "Combination therapy in a tumor mouse model, tumor volume", "format": "in vivo, mice", "details": "Paclitaxel alone 20 mg/kg Q1W intravenous", "source_text": "Endometrial cancer cells containing mutations in PTEN and FGFR2 were implanted into mice. Mice having tumor volumes of approximately 150 mm^3 were grouped by treatment schedule, with the start of treatment designated as day 0. Control mice received no treatment.\nIn a further example, mice were implanted with endometrial cancer cells as above. Mice having tumor volumes of approximately 150 mm^3 were grouped by treatment schedule, with the start of treatment designated as day 0. Control mice received no treatment."}, "[9]": {"system": "pS6, cleaved PARP", "assay": "Western blot of pS6 and cleaved PARP (FIG. 6)", "format": "cell-based", "details": "paclitaxel alone"}, "[10]": {"system": "HEC59 (paclitaxel resistant cell line) cells", "assay": "Growth of HEC59 cells (FIG. 9A)", "format": "cell-based"}}, "note": "Like-named read-outs stand apart in the source and are kept apart here."}
{"molecule": "CO[C@H]1C[C@@H]2CC[C@@H](C)[C@@](O)(O2)C(=O)C(=O)N2CCCC[C@H]2C(=O)O[C@H]([C@H](C)C[C@@H]2CC[C@@H](O)[C@H](OC)C2)CC(=O)[C@H](C)/C=C(\\C)[C@@H](O)[C@@H](OC)C(=O)[C@H](C)C[C@H](C)/C=C/C=C/C=C/1C", "note": "[rapamycin]", "values": [{"measurement": "sensitivity of mTORC1-dependent NRDG1 phosphorylation", "setting": "[1]", "value": "not"}]}
{"molecule": "Nc1ncnc2c1c(-c1cc3cccc(O)c3[nH]1)nn2C1CCN(C(=O)C2CC2)CC1", "note": "[Compound 41]", "values": [{"measurement": "IC50", "setting": "[2]; Table 2", "value": "> 500", "unit": "nM"}, {"measurement": "IC50", "setting": "[3]", "value": "> 500", "unit": "nM"}, {"measurement": "IC50", "setting": "[4]", "value": "< 50", "unit": "nM"}, {"measurement": "IC50", "setting": "[5]; Table 2", "value": "> 500", "unit": "nM"}, {"measurement": "IC50", "setting": "[6]", "value": "> 500", "unit": "nM"}, {"measurement": "IC50", "setting": "[7]", "value": "< 10", "unit": "nM"}]}
{"molecule": "CC(C)n1nc(-c2cc3cccc(Cl)c3[nH]2)c2c(N)ncnc21", "note": "[Compound 50]", "values": [{"measurement": "IC50", "setting": "[2]; Table 2", "value": "> 500", "unit": "nM"}, {"measurement": "IC50", "setting": "[3]", "value": "> 500", "unit": "nM"}, {"measurement": "IC50", "setting": "[4]", "value": "< 500", "unit": "nM"}, {"measurement": "IC50", "setting": "[5]; Table 2", "value": "< 500", "unit": "nM"}, {"measurement": "IC50", "setting": "[7]", "value": "< 50", "unit": "nM"}]}
{"molecule": "CC(C)N1CCC(n2nc(-c3cc4c(Cl)ccc(O)c4[nH]3)c3c(N)ncnc32)CC1", "note": "[Compound 71]", "values": [{"measurement": "IC50", "setting": "[2]; Table 2", "value": "> 500", "unit": "nM"}, {"measurement": "IC50", "setting": "[3]", "value": "> 500", "unit": "nM"}, {"measurement": "IC50", "setting": "[4]", "value": "> 500", "unit": "nM"}, {"measurement": "IC50", "setting": "[5]", "value": "> 500", "unit": "nM"}, {"measurement": "IC50", "setting": "[7]", "value": "< 100", "unit": "nM"}]}
{"molecule": "Nc1ncnc2c1c(-c1cc3cccc(Cl)c3[nH]1)nn2C1CCOCC1", "note": "[Compound 51]", "values": [{"measurement": "IC50", "setting": "[2]; Table 2", "value": "> 500", "unit": "nM"}, {"measurement": "IC50", "setting": "[3]", "value": "> 500", "unit": "nM"}, {"measurement": "IC50", "setting": "[4]", "value": "< 500", "unit": "nM"}, {"measurement": "IC50", "setting": "[5]; Table 2", "value": "< 500", "unit": "nM"}, {"measurement": "IC50", "setting": "[7]", "value": "< 50", "unit": "nM"}]}
{"molecule": "CC(=O)O[C@H]1C(=O)[C@@]2(C)[C@H]([C@H](OC(=O)c3ccccc3)[C@]3(O)C[C@H](OC(=O)[C@H](O)[C@@H](NC(=O)c4ccccc4)c4ccccc4)C(C)=C1C3(C)C)[C@]1(OC(C)=O)CO[C@@H]1C[C@@H]2O", "note": "[Paclitaxel]", "values": [{"measurement": "increase in average tumor volume by day 22", "setting": "[8]", "value": 17, "unit": "%"}, {"measurement": "average tumor volume by day 22", "setting": "[8]; from about 150 mm^3 at day 0", "value": "about 175 mm^3"}, {"measurement": "pS6 level", "setting": "[9]", "value": "induction of pS6"}, {"measurement": "inhibition of the growth of HEC59 cells", "setting": "[10]", "value": "partial inhibition"}]}
{"molecule": "COc1cc(Cl)c2[nH]c(-c3nn(C4CCOCC4)c4ncnc(N)c34)cc2c1", "note": "[Compound 67]", "values": [{"measurement": "IC50", "setting": "[2]; Table 2", "value": "> 500", "unit": "nM"}, {"measurement": "IC50", "setting": "[3]", "value": "> 500", "unit": "nM"}, {"measurement": "IC50", "setting": "[4]", "value": "> 500", "unit": "nM"}, {"measurement": "IC50", "setting": "[5]; Table 2", "value": "> 500", "unit": "nM"}, {"measurement": "IC50", "setting": "[7]", "value": "> 500", "unit": "nM"}]}
{"molecule": "COc1cccc2cc(-c3nn(C4CCOCC4)c4ncnc(N)c34)[nH]c12", "note": "[Compound 63]", "values": [{"measurement": "IC50", "setting": "[2]", "value": "< 500", "unit": "nM"}, {"measurement": "IC50", "setting": "[3]", "value": "> 500", "unit": "nM"}, {"measurement": "IC50", "setting": "[4]", "value": "< 25", "unit": "nM"}, {"measurement": "IC50", "setting": "[5]; Table 2", "value": "< 25", "unit": "nM"}, {"measurement": "IC50", "setting": "[7]", "value": "< 5", "unit": "nM"}]}
{"molecule": "CC(=O)N1CCC(n2nc(-c3cc4ccc(O)cc4[nH]3)c3c(N)ncnc32)CC1", "note": "[Compound 65]", "values": [{"measurement": "IC50", "setting": "[2]; Table 2", "value": "< 50", "unit": "nM"}, {"measurement": "IC50", "setting": "[3]", "value": "> 500", "unit": "nM"}, {"measurement": "IC50", "setting": "[4]", "value": "< 25", "unit": "nM"}, {"measurement": "IC50", "setting": "[5]; Table 2", "value": "< 25", "unit": "nM"}, {"measurement": "IC50", "setting": "[7]", "value": "< 10", "unit": "nM"}]}
{"molecule": "Nc1ncnc2c1c(-c1cc3cc(O)cc(Cl)c3[nH]1)nn2C1CCOCC1", "note": "[Compound 68]", "values": [{"measurement": "IC50", "setting": "[2]; Table 2", "value": "< 500", "unit": "nM"}, {"measurement": "IC50", "setting": "[3]", "value": "> 500", "unit": "nM"}, {"measurement": "IC50", "setting": "[4]", "value": "< 50", "unit": "nM"}, {"measurement": "IC50", "setting": "[5]; Table 2", "value": "< 25", "unit": "nM"}, {"measurement": "IC50", "setting": "[7]", "value": "< 5", "unit": "nM"}]}
